{"source": "patent US20090247647A1", "about": "“Method of Stimulating Proteoglycan Synthesis in Cells” (priority 2006, published 2009)", "system": "avian growth plate (GP) chondrocytes", "test": "Proteoglycan levels (dimethylmethylene blue assay) in primary growth plate chondrocyte cultures treated with vitamin D3 metabolites", "assay_type": "cell-based, hybrid broiler-strain chickens", "protocol": "Time and dosage-dependent effects of 1,25(OH)2 Vitamin D3 and 24,25(OH)2 Vitamin D3 on primary cultures of pre- and post-confluent avian growth plate (GP) chondrocytes were examined. Cultures were grown either in a serum-containing culture medium designed to closely mimic normal GP extracellular fluid (DATP5) or a serum-free culture medium. A variety of cellular parameters were measured including proteoglycan (PG), lactate dehydrogenase (LDH) and alkaline phosphatase (ALP) activity and calcium and phosphate mineral deposition in the extracellular matrix were also measured.\nTo develop the cell cultures, epiphyseal growth plates were dissected from the tibiae of a large number of 6-8-week-old hybrid broiler-strain chickens. The plates were pooled and the chondrocytes isolated. For these studies, the isolated cells were distributed into 320 identical primary cultures grown in 35 mm dishes in DMEM (2 ml per dish) with 10% fetal bovine serum for the first 3-4 days. Culture media were changed and a supplement of fresh ascorbic acid (25-50 μg/ml) added every 3-4 days for the duration of the experiments. From day 7 onward for 160 of the cultures, the medium was changed to DATP5 mineralization medium. To the other 160 dishes on day 7 the medium was changed to DMEM:HL-1 (1:1) and from day 10 onward to HL-1 serum-free medium (Biowhittaker, Walkersville, Md.). HL-1 chemically defined proprietary media contains transferrin, testosterone, sodium selenite, ethanolamine, saturated and unsaturated fatty acids, and stabilizing proteins (less than 30 μg/ml) and is supplemented with 10 mM β-glycerophosphate. […] All culture media contained 100 IU/ml of penicillin, 100 μg/ml streptomycin, and 0.25 μg/ml amphotericin B.\nAdministration of the vitamin D3 metabolites was initiated either before the cells attained confluence (Day 7, pre-confluent tests), or after they had become confluent (Day 14, post-confluent tests), and continued as indicated. Stock solutions (2 mM) of the vitamin D3 metabolites were prepared and further diluted in ethanol so that 2 μl of the test solution was added to 2 ml of culture medium.\nTo analyze biochemical activities, cells were harvested from the mm dishes in 1 ml TMT buffer (50 mM Tris, pH 7.5, 0.5 mM MgCl2, 0.05% Triton X-100), the samples being sonicated in a water-bath. Aliquots were taken from each sample for analysis of the following seven parameters: alkaline phosphatase (ALP) and lactate dehydrogenase (LDH) activities, Hoechst DNA, Lowry protein, proteoglycan (PG) and Ca^2+ and Pi mineral content. […] Bovine serum albumin was used as a standard. Proteoglycan content of the cell matrix was analyzed using the dimethylmethylene blue reagent 11 measuring the absorbency difference at 520 and 589 nm. The assay is based on the ability of the sulfated glycosaminoglycans to bind to the cationic dye, dimethylmethylene blue, in solution.\nThus within each sample, the seven parameters were analyzed and subsequently compared. Overall statistical analysis of differences between the various treatment parameters was performed using ANOVA with post hoc Tukey HSD multiple comparisons.", "key": {"[1]": {"details": "pre-confluent cultures, serum-containing DATP5 medium, early exposure (Day 7-17)"}}, "data": [{"smiles": "C=C1/C(=C\\C=C2/CCC[C@]3(C)[C@@H]([C@H](C)CCCC(C)(C)O)CC[C@@H]23)C[C@@H](O)C[C@@H]1O", "note": "[1,25(OH)2D3, 1,25 Hydroxyvitamin D3]", "values": [{"measurement": "effect of high levels on proteoglycan levels", "setting": "post-confluent treatment (from Day 14), both serum-containing and serum-free cultures", "result": "no longer inhibitory, but actually increased proteoglycan levels"}, {"measurement": "effect on proteoglycan levels", "setting": "[1]", "result": "marked dosage-dependent increase"}, {"measurement": "increase in proteoglycan levels over the control", "setting": "pre-confluent cultures, serum-containing DATP5 medium, early exposure (Day 7-17), 10 nM", "result": "more than four-fold"}, {"measurement": "effect of supra-physiological levels on proteoglycan levels", "setting": "pre-confluent cultures, serum-free HL-1 medium, 10 nM", "result": "marked reduction in proteoglycan levels"}, {"measurement": "maximal stimulation of proteoglycan levels", "setting": "pre-confluent cultures, serum-free HL-1 medium, Day 24", "result": "~7", "unit": "fold"}]}, {"smiles": "C=C1CC[C@H](O)C/C1=C/C=C1\\CCC[C@]2(C)[C@@H]([C@H](C)CC[C@@H](O)C(C)(C)O)CC[C@@H]12", "note": "[24,25(OH)2D3, 24,25 Hydroxyvitamin D3]", "values": [{"measurement": "effect on proteoglycan", "setting": "post-confluent exposure (from Day 14)", "result": "only small effects"}, {"measurement": "effect on proteoglycan levels", "setting": "[1]", "result": "minimal stimulation"}, {"measurement": "effect on proteoglycan levels", "setting": "pre-confluent cultures, serum-containing DATP5 medium, longer exposure", "result": "significant increases in proteoglycan levels, equal to or greater than those caused by 1,25(OH)2D3"}, {"measurement": "concentration of maximal stimulation of proteoglycan levels", "setting": "pre-confluent cultures, serum-free HL-1 medium", "result": 10, "unit": "nM"}, {"measurement": "effect on proteoglycan formation", "setting": "pre-confluent cultures, serum-free media", "result": "stimulated proteoglycan formation"}, {"measurement": "effect of supra-physiological levels on proteoglycan formation", "setting": "pre-confluent cultures, serum-free media, 100 nM", "result": "inhibitory to proteoglycan formation"}, {"measurement": "maximal effects on proteoglycan formation relative to those with 1,25(OH)2D3", "setting": "pre-confluent cultures, serum-free media, at 10 nM", "result": "only about half"}]}]}
